In ChEMBL document CHEMBL1130161, “Cyclic urea amides: HIV-1 protease inhibitors with low nanomolar potency against both wild type and protease inhibitor resistant mutants of HIV” (J Med Chem, 1997) one finds Resistance, IC90 and Ki data, which are given here for 17 molecules.

Assay [1] concerns Human immunodeficiency virus. In words: Resistance of constructed mutant 48V/90M virus was calculated as (IC90 for a mutant virus / IC90 of wt HXB2 virus). In kind it is functional.
For assay [2], the system named is Human immunodeficiency virus. Put plainly: Resistance of constructed mutant MK639 virus was calculated as (IC90 for a mutant virus / IC90 of wt HXB2 virus). Format: functional.
Assay [3] concerns Human immunodeficiency virus. Put plainly: Resistance of constructed mutant 82A virus was calculated as (IC90 for a mutant virus / IC90 of wt HXB2 virus). Format: functional.
Assay [4] relates to Human immunodeficiency virus. In words: Resistance of constructed mutant 84V virus was calculated as (IC90 for a mutant virus / IC90 of wt HXB2 virus). In kind it is functional.
The test system of assay [5] is Human immunodeficiency virus. In words: Resistance of constructed mutant […]/47V/50V virus was calculated as (IC90 for a mutant virus / IC90 of wt HXB2 virus). Format: functional.
A short description of assay [6]: Resistance of constructed mutant 82F virus was calculated as (IC90 for a mutant virus / IC90 of wt HXB2 virus). Format: functional.
Assay [7] has as its target Human immunodeficiency virus type 1 protease (Human immunodeficiency virus 1) (UniProt Q72874). Put plainly: Inhibitory concentration against accumulation of viral p24 antigen following infection of MT-4 cells. Format: functional, cell-based. The following applies: MT4.
Assay [8] concerns the target Human immunodeficiency virus type 1 protease (Human immunodeficiency virus 1, UniProt Q72874). In words: Binding affinity to inhibit the purified wild-type HIV-1 Protease.
Assay [9] concerns Human immunodeficiency virus. In words: Resistance of constructed mutant ABT538 virus was calculated as (IC90 for a mutant virus / IC90 of wt HXB2 virus). In kind it is functional.

As a reminder, the IC90 is the concentration needed for an effect of 90%. A lower IC90 goes with greater potency. In general, Ki refers to a measure of affinity in units of concentration, obtained from inhibition or displacement. Take `O=C(Nc1nccs1)c1cccc(CN2C(=O)N(Cc3ccccc3)[C@H](Cc3ccccc3)[C@H](O)[C@@H](O)[C@H]2Cc2ccccc2)c1`: the Resistance is listed as 1.9 in assay [1]; 10 in assay [2]; 4.9 in assay [3]; 7.2 in [4]; 10.2 in assay [5]; 3 in [6]. Also, the Resistance in assay [9] is 31. For the same molecule, the 90% effect level in [7] (IC90) was put at 74 nM. The molecule further displayed a Ki in [8] of 0.074 nM.

Turning to `Nc1cccc(CN2C(=O)N(Cc3cccc(N)c3)[C@H](Cc3ccccc3)[C@H](O)[C@@H](O)[C@H]2Cc2ccccc2)c1` [MOZENAVIR], the Resistance is on record as 1.5 in assay [1]; 27 in assay [2]; 2.5 in [3]; 9.9 in assay [4]; 7.5 in assay [5]; 5.3 in assay [6]. For the same molecule, in assay [9], the Resistance is given as 49. In [7], it took 120 nM to reach the 90% level (IC90). In [8], this molecule had a Ki of 0.34 nM.

Take `O=C(Nc1nc2ccccc2[nH]1)c1cccc(CN2C(=O)N(Cc3cccc(C(=O)Nc4nc5ccccc5[nH]4)c3)[C@H](Cc3ccccc3)[C@H](O)[C@@H](O)[C@H]2Cc2ccccc2)c1`: the Resistance in assay [1] is given as 0.3; in [2], 0.7; in [3], 0.8; in [4], 0.6; in [5], 1; in assay [6], 0.3. Further, the Resistance in [9] is listed as 1.2. In addition, the IC90 in [7] is 5.1 nM.

Regarding `O=C(Nc1ncc[nH]1)c1cccc(CN2C(=O)N(Cc3cccc(C(=O)Nc4ncc[nH]4)c3)[C@H](Cc3ccccc3)[C@H](O)[C@@H](O)[C@H]2Cc2ccccc2)c1`, the Resistance is recorded as 0.1 in [1]; 0.4 in assay [2]; 2.7 in [3]; 0.7 in [4]; 0.4 in assay [5]; 1.6 in [6]. The Resistance in assay [9] is 0.2. Besides, the 90% effect level in assay [7] (IC90) was put at 19 nM.

For the molecule `O=C1N(Cc2ccc(CO)cc2)[C@H](Cc2ccccc2)[C@H](O)[C@@H](O)[C@@H](Cc2ccccc2)N1Cc1ccc(CO)cc1` [DMP-323], the Resistance in assay [1] is 0.3; in assay [2], 18; in assay [3], 2.8; in assay [4], 22; in assay [5], 11; in assay [6] it was 7.1. In addition, the Resistance in assay [9] is 93. In assay [7], this molecule showed an IC90 of 95 nM.

For the molecule `CC(C)[C@H](NC(=O)OCc1ccccc1)C(=O)N[C@@H](Cc1ccccc1)[C@H](O)[C@@H](O)[C@@H](Cc1ccccc1)NC(=O)[C@H](NC(=O)OCc1ccccc1)C(C)C`, the Resistance was 1.3 in [1]; more than 150 in assay [2]; 6 in [3]; 2.1 in assay [4]; 6.5 in [5]; 1.8 in assay [6]. The Resistance in [9] was 13. Also, the IC90 in assay [7] worked out at 195 nM. The molecule also came in with a Ki in assay [8] of 0.25 nM.

Consider `O=C(Nc1nccs1)c1cccc(CN2C(=O)N(CC3CC3)[C@H](Cc3ccccc3)[C@H](O)[C@@H](O)[C@H]2Cc2ccccc2)c1`, for which the Resistance is recorded as 0.9 in [1]; 18.5 in assay [2]; 1.8 in [3]; 6.1 in [4]; 11 in assay [5]; 4.1 in assay [6]. Besides, the Resistance in [9] was 41. In [7], this molecule gave an IC90 of 40 nM.

Turning to `O=C(Nc1ncc[nH]1)c1cccc(CN2C(=O)N(CC3CC3)[C@H](Cc3ccccc3)[C@H](O)[C@@H](O)[C@H]2Cc2ccccc2)c1`, the Resistance in assay [2] is 12; in [9], 83. Moreover, in assay [7], the IC90 came to 28 nM. The affinity in assay [8], expressed as Ki, was 0.016 nM.

As for `O=C1N(CC2CC2)[C@H](Cc2ccccc2)[C@H](O)[C@@H](O)[C@@H](Cc2ccccc2)N1CC1CC1`, the Resistance in assay [1] is on record as 1.3; in assay [2], 11; in [3] it was 1.4; in [4] it was 6.6; in assay [5], 1.7; in [6], 4. The Resistance in assay [9] is 7.2. Also, it took 2100 nM to reach the 90% level in assay [7] (IC90).

For `O=C(Nc1nc2ccccc2[nH]1)c1cccc(CN2C(=O)N(CC3CC3)[C@H](Cc3ccccc3)[C@H](O)[C@@H](O)[C@H]2Cc2ccccc2)c1`, the Resistance was 1.9 in assay [1]; 26 in assay [2]; 1.9 in assay [3]; 8.4 in [4]; 2.1 in [5]; 2.1 in assay [6]. In addition, in assay [9], the Resistance is 86. Moreover, the IC90 in assay [7] came to 17 nM. In assay [8], this molecule displayed a Ki of 0.037 nM.

For the molecule `CC(C)(C)NC(=O)[C@@H]1C[C@@H]2CCCC[C@@H]2CN1C[C@@H](O)[C@H](Cc1ccccc1)NC(=O)[C@H](CC(N)=O)NC(=O)c1ccc2ccccc2n1`, the Resistance in assay [1] is recorded as 20; in assay [2] it was 5.3; in [3], 0.9; in assay [4] it was 0.7; in assay [6], 0.4; in assay [9] it was 0.6. The same molecule came in with an IC90 in assay [7] of 15 nM.

As for `CCCCN1C(=O)N(Cc2cccc(C(=O)Nc3ncc[nH]3)c2)[C@H](Cc2ccccc2)[C@H](O)[C@@H](O)[C@H]1Cc1ccccc1`, the Resistance in [1] is on record as 1; in [2], 14.5; in [3], 1.4; in assay [4], 4.2; in assay [6], 14.5; in assay [9], 27. In assay [7], this molecule registered an IC90 of 18 nM. The molecule also gave a Ki in [8] of 0.025 nM.

In the case of `CC(C)(C)NC(=O)[C@@H]1CN(Cc2cccnc2)CCN1C[C@@H](O)C[C@@H](Cc1ccccc1)C(=O)N[C@H]1c2ccccc2C[C@H]1O.O`, the Resistance in assay [1] is 3.6; in assay [2] it was 18; in assay [3], 2.5; in [4], 0.5; in assay [5], 1.8; in assay [6], 2.8. Besides, the Resistance in assay [9] was 6.5. In assay [7], this molecule gave an IC90 of 28 nM.

Regarding `O=C(Nc1nccs1)c1cccc(CN2C(=O)N(Cc3cccc(C(=O)Nc4nccs4)c3)[C@H](Cc3ccccc3)[C@H](O)[C@@H](O)[C@H]2Cc2ccccc2)c1`, the Resistance is 0.2 in assay [1]; 8.7 in assay [2]; 2.2 in assay [3]; 1.2 in assay [4]; 23 in [5]; 0.9 in [6]. Further, in assay [9], the Resistance is reported as 24. This molecule gave an IC90 in assay [7] of 4.2 nM.

Consider `CC(C)c1nc(CN(C)C(=O)N[C@H](C(=O)N[C@@H](Cc2ccccc2)C[C@H](O)[C@H](Cc2ccccc2)NC(=O)OCc2cncs2)C(C)C)cs1` [RITONAVIR], for which the Resistance in assay [1] was 5; in assay [2], 5.5; in assay [3], 7.1; in assay [4], 2.4; in assay [5], 6; in assay [6], 8.9. The Resistance in assay [9] is 30.

As to `O=C(Nc1ncc[nH]1)c1cccc(CN2C(=O)N(Cc3ccccc3)[C@H](Cc3ccccc3)[C@H](O)[C@@H](O)[C@H]2Cc2ccccc2)c1`, the Resistance in [1] is on record as 0.6; in assay [2] it was 15; in assay [3], 1; in [4], 2.9; in assay [6], 0.5; in assay [9], 29. This molecule displayed an IC90 in [7] of 21 nM. In assay [8], the Ki was found to be 0.033 nM.

As to `CC(C)CN(C[C@@H](O)[C@H](Cc1ccccc1)NC(=O)O[C@H]1CCOC1)S(=O)(=O)c1ccc(N)cc1`, the Resistance in [1] was 1.1; in assay [2], 3.8; in assay [3], 2.2; in [4], 1.5; in [5], 39; in assay [6], 1.9. For the same molecule, the Resistance in [9] is 13. Moreover, the IC90 in [7] turned out to be 81 nM.
